Measured values published in ChEMBL document CHEMBL1201862, “PubChem BioAssay data set” (2004).
“And” between values parts separate entries of the source, which are not always exact repeats. Equal entries are not always repeated.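 Test compounds were applied to cells in 96-well plates for 48 hours at 5 doses. GI50 is the concentration that inhibits growth by half.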 The source made the active and inactive calls. Rule as the data show it: active = GI50 up to about 1.1 µM and inactive = higher. Where a SMILES comes first, the peptide text is derived from it. The star is where a group is joined. Boc = CC(C)(C)OC(=O)*

How the values were obtained:
Test in all cases: DTP human tumour cell line panel, 48 h
[1] = system: BT-549
[2] = system: KM-20L2
[3] = system: SNB-78
[4] = system: DMS-273
[5] = system: M19-MEL
[6] = system: DLD-1
[7] = system: XF498
[8] = system: HOP-18
[9] = system: RXF 631

Structure (SMILES)	GI50 [1]	GI50 [4]	GI50 [6]	further results
COC(=O)C(C)NC(=O)C(CCSC)NC(=O)C(Cc1ccccc1)NC(=O)OC(C)(C)C (stereo not drawn) (Boc-Phe-Met-Ala-OMe; configuration not given here)	> 100 µM (inactive)			
O=C1CCC(CCc2nc3ccccc3[nH]2)(c2ccccc2)C(=O)N1 (stereo not drawn)	> 100 µM (inactive)			
C/C(=N\Nc1nc2ccccc2s1)c1cccnn1	5.32 µM (inactive)			
Cn1c(=O)c2[nH]c(C3CC(=O)CC(c4nc5c([nH]4)c(=O)n(C)c(=O)n5C)N3)nc2n(C)c1=O (stereo not drawn)	> 100 µM (inactive)			
O=C(O)c1ccccc1.[Ag]	27.2 µM (inactive)			
CC(=O)Nc1cc2cc(N)ccc2oc1=O	> 100 µM (inactive)			
C[Si](C)(C)C(Sc1ccccc1)(Sc1ccccc1)Sc1ccccc1		> 100 µM (inactive)	53.6 µM (inactive)	GI50 [2]: 67.1 µM (inactive); GI50 [3]: > 100 µM (inactive); GI50 [5]: 34.7 µM (inactive); GI50 [7]: 30.8 µM (inactive)
CCOC(=O)c1nc2cc(F)cc(F)c2[nH]c1=O	> 100 µM (inactive)			
O=C(O)c1cc2c(cc1CC(Cc1ccc3c(c1)CCCC3)C(=O)O)CCCC2 (stereo not drawn)	59.2 µM (inactive)			
COC(=O)C1=C(C(=O)OC)C2(OC(C)=O)c3ccccc3-c3ccccc3C12 (stereo not drawn)		4.98 µM (inactive)	1.7 µM (inactive)	GI50 [2]: 6.15 µM (inactive); GI50 [3]: 4.95 µM (inactive); GI50 [5]: 4.56 µM (inactive); GI50 [8]: 5.2 µM (inactive); GI50 [7]: 12.4 µM (inactive)
O=[N+]([O-])c1ccc(NC2OCC(O)C(O)C2O)cc1 (stereo not drawn)		> 100 µM (inactive)	> 100 µM (inactive)	GI50 [2]: > 100 µM (inactive); GI50 [3]: > 100 µM (inactive); GI50 [9]: > 100 µM (inactive); GI50 [7]: > 100 µM (inactive)
CC(=O)NC1=C(NCc2ccc(Cl)cc2)C(=O)c2ccccc2C1=O		7.67 µM (inactive)	6.76 µM (inactive)	GI50 [2]: 24.3 µM (inactive); GI50 [3]: 11 µM (inactive); GI50 [5]: 5.27 µM (inactive); GI50 [7]: 1.44 µM (inactive)
O=CNC(Cc1c[nH]cn1)C(=O)O (stereo not drawn)	> 100 µM (inactive)			
CC1NC(=O)C2Cc3ccc(O)c(c3)Oc3ccc(cc3)C(O)C(C(=O)N2C)N(C)C(=O)C(C)NC(=O)C(Cc2ccc(O)cc2)N(C)C(=O)C(C)NC1=O (stereo not drawn)	24.6 µM (inactive)			
N=C(N)NS(=O)(=O)c1ccc(NCCc2c3ccccc3nc3ccccc23)cc1		72.4 µM (inactive)	> 100 µM (inactive)	GI50 [2]: > 100 µM (inactive); GI50 [9]: 35.5 µM (inactive); GI50 [5]: > 100 µM (inactive)
CC(=O)c1c(=O)n(-c2ccc(C)cc2)c(O)c2c(N)n[nH]c12	> 100 µM (inactive)			
COc1ccc(C2Oc3cc(OC)c(OC)cc3C2CCl)cc1OC (stereo not drawn)		> 100 µM (inactive)	67.5 µM (inactive)	GI50 [2]: > 100 µM (inactive); GI50 [5]: > 100 µM (inactive); GI50 [7]: > 100 µM (inactive)

Structure (SMILES)	GI50 [1]	GI50 [4]	GI50 [6]	further results
CNC(=O)OCc1c(CO)nc(SC)n1C		> 100 µM (inactive)	> 100 µM (inactive)	GI50 [2]: > 100 µM (inactive); GI50 [5]: > 100 µM (inactive); GI50 [8]: > 100 µM (inactive); GI50 [7]: > 100 µM (inactive)
Cc1ccc(-c2cc(-c3ccccc3)c(C#N)c(=O)n2C2OC(CO)C(O)C(O)C2O)cc1 (stereo not drawn)		> 100 µM (inactive)	> 100 µM (inactive)	GI50 [2]: > 100 µM (inactive); GI50 [3]: > 100 µM (inactive); GI50 [9]: > 100 µM (inactive); GI50 [5]: > 100 µM (inactive); GI50 [8]: > 100 µM (inactive)
NN	1080 µM (inactive)	132 µM (inactive)	296 µM (inactive)	GI50 [2]: 231 µM (inactive); GI50 [3]: 1190 µM (inactive); GI50 [8]: 324 µM (inactive)
CCOC(=O)CC(=O)Nc1cccc2nc[nH]c12	> 100 µM (inactive)			
CC1=NN(c2nc(N)nc(CC#N)n2)C(C)(C)C1	> 100 µM (inactive)			
CC(=O)OC1COC(n2c(N)c(C#N)c(-c3ccccc3)c(C#N)c2=S)C(OC(C)=O)C1OC(C)=O (stereo not drawn)	25.6 µM (inactive) and 22.8 µM (inactive)			
N#Cc1cccc(/C=N/N/C(N)=N/O)c1		> 100 µM (inactive)	53.2 µM (inactive)	GI50 [3]: > 100 µM (inactive); GI50 [5]: > 100 µM (inactive); GI50 [8]: 15.7 µM (inactive); GI50 [7]: 23.8 µM (inactive)
Nc1ccn(CC(O)c2cc3ccccc3[nH]2)c(=O)n1 (stereo not drawn)	> 100 µM (inactive)			
C=CCNC(=S)N/N=C1\C(=O)N(CN2CCOCC2)c2ccc([N+](=O)[O-])cc21	15.1 µM (inactive)			
CCc1ccccc1/N=N/C(=O)NNc1ccccc1CC	18.4 µM (inactive)			
CS[C@]12C(=O)C[C@@]3(C)[C@@H](CC[C@]3(O)C(=O)CO)[C@@H]1CCC1=CC(=O)CC[C@@]12C	68.2 µM (inactive)			
CN(NC(=O)/C(=C/C=C/c1ccccc1)NC(=O)c1ccccc1)C1=C(Cl)C(=O)[N+](c2ccccc2)=CC1	22.5 µM (inactive)			
CC(=O)Nc1ccc(C(=O)NN2C(=O)CSC2c2ccc(O)cc2)cc1 (stereo not drawn)	> 100 µM (inactive)			
CCCC1NC(C#N)(C#N)C(CCC)NC1(C#N)C#N (stereo not drawn)	1.12 µM (inactive)			
COc1ccc(-c2cc(-c3ccccc3)nc(N)c2-c2ccc3ccccc3c2)cc1	1.64 µM (inactive)			
CSC1(CC(=O)N(C)C)C(=O)Nc2ccccc21 (stereo not drawn)	> 100 µM (inactive)			
